Columns and labels:
[1] = system: caspase-3; assay: Liver caspase-3 activity in alcohol-induced acute liver injury animal model; format: in vivo; conditions: mice; oral 100 mg/kg for 4 days before ethanol 6 g/kg oral; FIG. 9
Experimental: Also, the caspase-3 activity was measured by using an activity assay kit (R&D kit). That is, caspase-3 activity was measured by using a caspase-3 colorimetric assay kit (R&D system, Minneapolis, Minn.). Liver cells were lysed by using lysis buffer, and then the protein (150 μg) was incubated with DEVD-pNA, a caspase-3 substrate at 37° C. for 2 hours, and then absorption of the product was measured at a wavelength of 405 nm.

[2] = system: caspase-3; assay: Caspase-3 activity by Western blotting with cleaved caspase-3 antibody in ethanol-treated liver cells; format: cell-based, Sprague-Dawley rats or C57BL/6 mouse; conditions: pretreatment 100 μM; ethanol 24 hours; FIG. 2
Experimental: (§1) Liver cells were separated from Sprague-Dawley rats (8 to 10 weeks) or C57BL/6 (8 to 10 weeks) mouse via in situ collagenase perfusion, and then cultured in DMEM containing 10% FBS, 100 U/ml penicillin, 100 μg/ml streptomycin, 4 mM L-glutamine, and 100 nM dexamethasone. After 3 hours, the culture solution was replaced with DMEM including 0.1% FBS and 10 nM dexamethasone, and then, cultured for 16 hours (overnight). For the treatment, the cells were treated with various concentrations of ethanol (0, 100, 200 mM) alone or together with cilostazol (Otsuka) or pentoxifylline which is used as a therapeutic agent for alcoholic hepatitis, and the resultant cell reactions were compared with each other. After the treatment with ethanol, a culture dish was sealed with a parafilm to prevent evaporation of ethanol.

[3] = system: primary cultured liver cells; assay: MTS assay, viability of primary cultured liver cells treated with ethanol; format: cell-based, Sprague-Dawley rats or C57BL/6 mouse; conditions: pretreatment 100 μM; ethanol 100, 200 mM for 24 hour; vs DMSO group; FIG. 1
Experimental: as §1, with “ethanol. MTS assay was performed in the following manner to identify effects of cilostazol on decreased liver cell viability caused by ethanol. That is, the viability of liver cells was measured by using a MTS assay kit (Promega, Madison, Wis., USA). […] An MTS solution were added to the respective wells and then, the cells were incubated at 37° C. for 4 hours, and absorption of the result was measured at a wavelength of 490 nm.” for “ethanol.”

[4] = system: FAS (fatty acid synthase) gene; assay: Liver FAS gene expression (real-time PCR) in alcohol-induced acute liver injury animal model; format: in vivo; conditions: mice; oral 100 mg/kg for 4 days before ethanol 6 g/kg oral; FAS mRNA normalized to β-actin; FIG. 11
Experimental: Eight-week old mice were subjected to binge alcohol drinking to induce liver damage. That is, mice were administered orally 6 g/kg of ethanol once. Cilostazol was orally administered in doses of 50 mg/kg/day and 100 mg/kg/day for 4 days before ethanol administration, and ethanol was orally administered 1 h after the last cilostazol administration. Then, animals were sacrificed at different time after ethanol administration.
Effects of cilostazol on the expression of FAS gene were identified by real-time PCR assay. That is, total RNA was extracted from liver tissues by using a trizol reagent, and then 1 μg of total RNA was reverse-transcribed into cDNA by using high-performance cDNA reverse transcription kit (Applied Biosystems, Foster City, Calif., USA). The PCR reaction was performed such that cDNA, the respective primers were reacted with power SYBR Green PCR master mix (Applied Biosystems) by using real-time PCR 7500 software system (Applied Biosystem). The PCR conditions were initial incubation at 95° C. for 10 minutes, followed by 45 cycles of 95° C. for 15 seconds, 55° C. for 20 seconds, and 72° C. for 35 seconds.
FAS mRNA level was normalized to β-actin mRNA level, and shown in fold increase.

[5] = system: RAW264.7 macrophage; assay: LPS-induced ROS production in RAW264.7 macrophage (H2DCFDA, FACS); format: cell-based; conditions: pretreatment 100 μM for 1 hour; LPS 50 ng/ml, 4 hours; FIG. 7
Experimental: RAW264.7 cells were obtained from Korean Cell Line Bank and cultured in a DMEM solution containing 10% FBS, 100 U/ml penicillin, and 100 μg/ml streptomycin for use in experiments. To compare direct effects of ethanol with indirect effects caused by endotoxin, effects of LPS were identified. RAW264.7 macrophage prepared as described above was treated with LPS (50 ng/ml) for 0 to 18 hours. Separately, RAW264.7 macrophage prepared as described above was pretreated with cilostazol (100 μM) or pentoxifylline (100 μM) for 1 hour and then, treated with LPS (50 ng/ml) for 4 hours. The RAW264.7 macrophages were treated with H2DCFDA (50 μM) for 40 minutes, and then, the production of ROS was evaluated by using FACS.

[6] = system: caspase-3; assay: Caspase-3 colorimetric activity assay kit (DEVD-pNA) in ethanol-treated liver cells; format: cell-based, Sprague-Dawley rats or C57BL/6 mouse; conditions: liver cells pretreated, FIG. 3
Experimental: as §1, with “ethanol. Also, the caspase-3 activity was measured by using an activity assay kit (R&D kit). That is, caspase-3 activity was measured by using a caspase-3 colorimetric assay kit (R&D system, Minneapolis, Minn.). Liver cells were lysed by using lysis buffer, and then the protein (150 μg) was incubated with DEVD-pNA, a caspase-3 substrate at 37° C. for 2 hours, and then absorption of the product was measured at a wavelength of 405 nm.” for “ethanol.”

[7] = system: primary cultured liver cells; assay: Hoechst staining of liver cell apoptosis caused by ethanol; format: cell-based, Sprague-Dawley rats or C57BL/6 mouse; conditions: pretreatment; Hoechst 33342; FIG. 4
Experimental: Liver cells were separated from Sprague-Dawley rats (8 to 10 weeks) or C57BL/6 (8 to 10 weeks) mouse via in situ collagenase perfusion, and then cultured in DMEM containing 10% FBS, 100 U/ml penicillin, 100 μg/ml streptomycin, 4 mM L-glutamine, and 100 nM dexamethasone. After 3 hours, the culture solution was replaced with DMEM including 0.1% FBS and 10 nM dexamethasone, and then, cultured for 16 hours (overnight).
For the treatment, the cells were treated with various concentrations of ethanol (0, 100, 200 mM) alone or together with cilostazol (Otsuka) or pentoxifylline which is used as a therapeutic agent for alcoholic hepatitis, and the resultant cell reactions were compared with each other. After the treatment with ethanol, a culture dish was sealed with a parafilm to prevent evaporation of ethanol.

[8] = system: TNF-α; assay: LPS-stimulated TNF-α production in RAW264.7 macrophage (ELISA); format: cell-based; conditions: pretreatment, LPS 50 ng/ml, 4 hours, FIG. 5
Experimental: RAW264.7 cells were obtained from Korean Cell Line Bank and cultured in a DMEM solution containing 10% FBS, 100 U/ml penicillin, and 100 μg/ml streptomycin for use in experiments. To compare direct effects of ethanol with indirect effects caused by endotoxin, effects of LPS were identified. RAW264.7 macrophage prepared as described above was treated with LPS (50 ng/ml) for 4 hours, and then, TNF-α level in the cell culture was measured by using ELISA kit (R&D).

Row | SMILES | liver caspase-3 activity after ethanol administration [1] | caspase-3 activity (cleaved caspase-3, Western blot) increased by ethanol, effect of pretreatment [2] | liver cell viability decreased by ethanol, effect of pretreatment [3] | reduction of liver FAS gene expression after ethanol administration [4] | production of ROS induced by LPS, effect of pretreatment [5] | caspase-3 activity (activity assay kit) increased by ethanol, effect of pretreatment [6] | nuclear fragmentation caused by ethanol [7] | decrease of LPS-increased TNF-α level in culture media ([8]; p=0.016) [%] | inhibitory effect on LPS-increased TNF-α level in culture media [8]
1 | O=C1CCc2cc(OCCCCc3nnnn3C3CCCCC3)ccc2N1 [cilostazol] | significantly reduced | cilostazol showed better inhibitory effects than pentoxifylline | significantly recovered | about 30% | neither cilostazol nor pentoxifylline significantly inhibited | almost completely inhibited | reduced | ~50 | 
2 | CC(=O)CCCCn1c(=O)c2c(ncn2C)n(C)c1=O [pentoxifylline] |  | reduced | did not significantly improve the cell viability |  | neither cilostazol nor pentoxifylline significantly inhibited | reduced caspase-3 activity caused by ethanol, but the inhibitory effect of pentoxifylline was smaller than that of cilostazol |  |  | did not show significant inhibitory effects
